# Test results as given in patent US9156827B2, “Anticancer agent” (THE UNIVERSITY OF TOKYO, priority 2010, dated 2015).
# Where a name gives a salt, the structure may show the parent alone.
# What was measured:
# [1] = system: human acute myeloid leukemia MV4.11 cells; test: Cell proliferation-suppressing activity, fluorescence method (Alamar Blue assay); format: cell-based; settings: 48 h, compound 1 μM, Alamar Blue assay two days after inoculation, Table 5
# Experimental: Measurement of Cell Proliferation-Suppressing Activity (Fluorescence Method)
# Each compound was added to a 96-well microtiter plate at a final concentration of 1 μM, then human acute myeloid leukemia MV4.11 cells (10^4 cells) were inoculated, and the Alamar Blue assay was performed two days after the inoculation (measurement of fluorescence: Ex. 535 nm, Em. 590 nm) to measure cell proliferation-suppressing activity.
# pim-1 kinase = pim-1 kinase (Homo sapiens, UniProt P11309); test: Measurement of pim-1 kinase inhibitory activity (fluorescent substrate peptide, capillary electrophoresis); format: biochemical; settings: 0.1 μM of each compound, 30 μM ATP, 1.5 μM substrate peptide, room temperature 2 hours
# pim-1 kinase, sequence (P11309 whole entry): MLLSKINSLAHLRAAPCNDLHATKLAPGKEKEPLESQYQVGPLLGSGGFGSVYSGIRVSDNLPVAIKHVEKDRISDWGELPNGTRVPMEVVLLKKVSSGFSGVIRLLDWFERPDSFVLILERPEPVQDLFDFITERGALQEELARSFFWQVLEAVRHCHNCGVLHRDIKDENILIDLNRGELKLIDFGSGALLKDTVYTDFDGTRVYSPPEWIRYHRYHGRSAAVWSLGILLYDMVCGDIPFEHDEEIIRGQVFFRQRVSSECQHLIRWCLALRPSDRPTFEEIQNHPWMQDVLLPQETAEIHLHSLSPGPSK
# Experimental: Measurement of Pim-1 Kinase Inhibitory Activity
# The result of the reaction was determined by quantifying the substrate and the phosphorylated reaction product separated by capillary electrophoresis based on difference in charges of the substances (EZ Reader II, Caliper Life Sciences, was used).
# [2] = system: Human acute myeloid leukemia MV4-11 cells; test: Cell proliferation-suppressing activity, chromogenic method (MTT assay); format: cell-based; settings: 72 h, compound 1 μM, MTT assay three days after addition
# Experimental: Measurement of Cell Proliferation-Suppressing Activity (Chromogenic Method)
# Human acute myeloid leukemia MV4-11 cells (10^4 cells) were inoculated on a 96-well microtiter plate, each compound was added at a final concentration of 1 μM 24 hours afterward, and MTT assay was performed three days after the addition of the compound to measure the cell proliferation-suppressing activity.
SMILES,inhibition at 0.1 µM (pim-1 kinase; Table 1) [%],inhibition at 0.1 µM (pim-1 kinase; Table 2) [%],inhibition at 1 µM [1] [%],inhibition at 1 µM ([2]; Table 4) [%],inhibition at 1 µM ([2]; Table 3) [%]
"Cc1ccc2[nH]cc(/C=C3\Oc4c(ccc(O)c4CN4CCNCC4)C3=O)c2c1 [Compound A18, (Z)-6-Hydroxy-2-[(5-methyl-1H-indol-3-yl)methylene]-7-(piperazin-1-ylmethyl)benzofuran-3(2H)-one dihydrochloride]",95,–,71,–,–
"Nc1ccc2c(/C=C3\Oc4c(ccc(O)c4CN4CCNCC4)C3=O)c[nH]c2c1 [Compound A25, (Z)-2-[(6-Amino-1H-indol-3-yl)methylene]-6-hydroxy-7-(piperazin-1-ylmethyl)benzofuran-3(2H)-one trihydrochloride]",83,–,20,–,–
"O=C1/C(=C/c2c[nH]c3ccccc23)Oc2c1cc(Cl)c(O)c2CN1CCNCC1 [Compound A12, (Z)-2-[(1H-Indol-3-yl)methylene]-5-chloro-6-hydroxy-7-(piperazin-1-ylmethyl)benzofuran-3(2H)-one dihydrochloride]",81,–,87,–,–
"O=C1/C(=C/c2c[nH]c3ccccc23)Oc2c1ccc(O)c2CN1CCNCC1 [Compound A11, (Z)-2-[(1H-Indol-3-yl)methylene]-6-hydroxy-7-(piperazin-1-ylmethyl)benzofuran-3(2H)-one]",87,–,–,–,82
"O=C1CN(Cc2c(O)ccc3c2O/C(=C\c2c[nH]c4ccccc24)C3=O)CCN1 [Compound A7, (Z)-4-({2-[(1H-Indol-3-yl)methylene]-6-hydroxy-3-oxo-2,3-dihydrobenzofuran-7-yl}methyl)piperazin-2-one]",81,–,–,–,22
"CC(C)COc1ccc2c(c1CN1CCNCC1)O/C(=C\c1n[nH]c3ccccc13)C2=O [Compound B26, (Z)-2-[(1H-Indazol-3-yl)methylene]-6-isobutoxy-7-(piperazin-1-ylmethyl)benzofuran-3(2H)-one]",–,78,–,86,–
"O=C1/C(=C/c2cn(S(=O)(=O)c3ccccc3Cl)c3ccccc23)Oc2c1ccc(O)c2CN1CCNCC1 [Compound A36, (Z)-2-{[1-(2-Chlorophenylsulfonyl)-1H-indol-3-yl]methylene}-6-hydroxy-7-(piperazin-1-ylmethyl)benzofuran-3(2H)-one dihydrochloride]",99,–,39,–,–
"Cc1ccc(S(=O)(=O)n2cc(/C=C3\Oc4c(ccc(O)c4CN4CCNCC4)C3=O)c3ccccc32)cc1 [Compound A33, (Z)-6-Hydroxy-7-(piperazin-1-ylmethyl)-2-[(1-tosyl-1H-indol-3-yl)methylene]benzofuran-3(2H)-one dihydrochloride]",94,–,32,–,–
"CN(C)C1CCN(Cc2c(O)ccc3c2O/C(=C\c2c[nH]c4ccccc24)C3=O)C1 (centres unmarked) [Compound A3, (Z)-2-[(1H-Indol-3-yl)methylene]-7-{[3-(dimethylamino)pyrrolidin-1-yl]methyl}-6-hydroxybenzofuran-3(2H)-one]",47,–,–,–,41
"O=C1/C(=C/c2cn(S(=O)(=O)c3c(Cl)cccc3Cl)c3ccccc23)Oc2c1ccc(O)c2CN1CCNCC1 [Compound A37, (Z)-2-{[1-(2,6-Dichlorophenylsulfonyl)-1H-indol-3-yl]methylene}-6-hydroxy-7-(piperazin-1-ylmethyl)benzofuran-3(2H)-one dihydrochloride]",99,–,55,–,–
"O=C1/C(=C/c2cn(S(=O)(=O)c3ccc(Cl)cc3)c3ccccc23)Oc2c1ccc(O)c2CN1CCNCC1 [Compound A35, (Z)-{[1-(4-Chlorophenylsulfonyl)-1H-indol-3-yl]methylene}-6-hydroxy-7-(piperazin-1-ylmethyl)benzofuran-3(2H)-one dihydrochloride]",96,–,48,–,–
"O=C1/C(=C/c2c[nH]c3ncccc23)Oc2c1ccc(O)c2CN1CCOCC1 [Compound A44, (Z)-2-[(1H-Pyrrolo[2,3-b]pyridin-3-yl)methylene]-6-hydroxy-7-(morpholinomethyl)benzofuran-3(2H)-one]",27,–,46,–,–
"O=C1/C(=C/c2c[nH]c3ccc([N+](=O)[O-])cc23)Oc2c1ccc(O)c2CN1CCNCC1 [Compound A17, (Z)-6-Hydroxy-2-[(5-nitro-1H-indol-3-yl)methylene]-7-(piperazin-1-ylmethyl)benzofuran-3(2H)-one dihydrochloride]",82,–,–,–,73
"O=C1/C(=C/c2c[nH]c3ccc(Br)cc23)Oc2c1ccc(O)c2CN1CCNCC1 [Compound A22, (Z)-2-[(5-Bromo-1H-indol-3-yl)methylene]-6-hydroxy-7-(piperazin-1-ylmethyl)benzofuran-3(2H)-one dihydrochloride]",94,–,–,–,70

# Second part, led by results:
inhibition at 0.1 µM (pim-1 kinase; Table 1) [%],inhibition at 0.1 µM (pim-1 kinase; Table 2) [%],SMILES,inhibition at 1 µM [1] [%],inhibition at 1 µM ([2]; Table 4) [%],inhibition at 1 µM ([2]; Table 3) [%]
–,100,"COc1ccc2c(c1CN1CCNCC1)O/C(=C\c1n[nH]c3ccc(Br)cc13)C2=O [Compound B19, (Z)-2-[(5-Bromo-1H-indazol-3-yl)methylene]-6-methoxy-7-(piperazin-1-ylmethyl)benzofuran-3(2H)-one]",–,94,–
–,95,O=C1/C(=C/c2n[nH]c3ccccc23)Oc2c1cc1c(c2CN2CCNCC2)OCO1 [Compound B39],–,92,–
–,100,"COc1ccc2c(c1CN1CCNCC1)O/C(=C\c1n[nH]c3ccccc13)C2=O [Compound B17, (Z)-2-[(1H-Indazol-3-yl)methylene]-6-methoxy-7-(piperazin-1-ylmethyl)benzofuran-3(2H)-one]",–,93,–
–,79,"C[C@H]1CNCCN1Cc1c(O)ccc2c1O/C(=C\c1n[nH]c3ccccc13)C2=O [Compound B3, (Z)-2-[(1H-Indazol-3-yl)methylene]-6-hydroxy-7-{[2-(S)-methylpiperazin-1-yl]methyl}benzofuran-3(2H)-one]",–,79,–
–,96,"CCOc1ccc2c(c1CN1CCNCC1)O/C(=C\c1n[nH]c3ccccc13)C2=O [Compound B22, (Z)-2-[(1H-Indazol-3-yl)methylene]-6-ethoxy-7-(piperazin-1-ylmethyl)benzofuran-3(2H)-one]",–,90,–
–,95,"COc1ccc2c(c1CN1CCNCC1)O/C(=C\c1n[nH]c3ccc(Cl)cc13)C2=O [Compound B18, (Z)-2-[(5-Chloro-1H-indazol-3-yl)methylene]-6-methoxy-7-(piperazin-1-ylmethyl)benzofuran-3(2H)-one]",–,87,–
–,97,"COc1ccc2c(c1OC1CCNCC1)O/C(=C\c1n[nH]c3ccccc13)C2=O [Compound B35, (Z)-2-[(1H-Indazol-3-yl)methylene]-6-methoxy-7-(piperidin-4-yloxy)benzofuran-3(2H)-one]",–,95,–
–,86,"CC(c1c(O)ccc2c1O/C(=C\c1n[nH]c3ccccc13)C2=O)N1CCNCC1 (centres unmarked) [Compound B7, (Z)-2-[(1H-Indazol-3-yl)methylene]-6-hydroxy-7-[1-(piperazin-1-yl)ethyl]benzofuran-3(2H)-one]",–,88,–
–,97,"COCCOc1ccc2c(c1CN1CCNCC1)O/C(=C\c1n[nH]c3ccccc13)C2=O [Compound B21, (Z)-2-[(1H-Indazol-3-yl)methylene]-6-(2-methoxyethoxy)-7-(piperazin-1-ylmethyl)benzofuran-3(2H)-one]",–,94,–
–,85,"COc1ccc2c(c1C(=O)N1CCNCC1)O/C(=C\c1n[nH]c3ccccc13)C2=O [Compound B37, (Z)-2-[(1H-Indazol-3-yl)methylene]-6-methoxy-7-(piperazine-1-carbonyl)benzofuran-3(2H)-one]",–,76,–
–,87,"COc1cc2c(c(CN3CCNCC3)c1OC)O/C(=C\c1n[nH]c3ccccc13)C2=O [Compound B38, (Z)-2-[(1H-Indazol-3-yl)methylene]-5,6-dimethoxy-7-(piperazin-1-ylmethyl)benzofuran-3(2H)-one]",–,95,–
–,82,"O=C1/C(=C/c2n[nH]c3ccccc23)Oc2c1ccc(OC1CCOCC1)c2CN1CCNCC1 [Compound B29, (Z)-2-[(1H-Indazol-3-yl)methylene]-7-(piperazin-1-ylmethyl)-6-(tetrahydro-2H-pyran-4-yloxy)benzofuran-3(2H)-one]",–,90,–
–,91,"O=C1/C(=C/c2n[nH]c3ccccc23)Oc2c1ccc(OCC1CC1)c2CN1CCNCC1 [Compound B27, (Z)-2-[(1H-Indazol-3-yl)methylene]-6-(cyclopropylmethoxy)-7-(piperazin-1-ylmethyl)benzofuran-3(2H)-one]",–,89,–
–,97,"CC(C)Oc1ccc2c(c1CN1CCNCC1)O/C(=C\c1n[nH]c3ccccc13)C2=O [Compound B25, (Z)-2-[(1H-Indazol-3-yl)methylene]-6-isopropoxy-7-(piperazin-1-ylmethyl)benzofuran-3(2H)-one]",–,91,–
